Assays:
[1] = test system: hepatitis B surface antigen; assay: Antibody response to hepatitis B surface antigen with octadecyl amino acid immunoadjuvants, radioimmunoassay of sera; assay type: in vivo, BALB/c mice; conditions: 50 ng HBsAg i.m. day 1, boost 35 ng day 21, 100 µg octadecyl amino acid
Procedure: BALB/c mice were immunized with 50 ng of hepatitis B surface antigen in the presence of adjuvant for the non-control mice and in the absence of adjuvant for the control mice. The hepatitis B surface antigen was obtained from 3T3 cells transfected with the gene for the surface antigen. 100 µg of octadecyl amino acid was complexed with the polypeptide as described in Example 2. This mixture, in a total volume of 0.1 ml, was injected on day 1 using an intramuscular route, and the mice were bled on days 7, 14, 21, 28, 35, 42 and 61. The mice were boosted with 35 ng of the polypeptide on day 21.
The antibody concentration in the sera was determined by radioimmunoassay. The antibody concentration was estimated by comparison with a standard curve obtained using a monoclonal antibody.

HIV-1 polypeptide = assay: Antibody response to HIV-1 polypeptide in baboons with octadecyl tyrosine hydrochloride, radioimmunoassay; assay type: in vivo
Procedure: 3) Experiments in baboons Two baboons were immunized with 300 µg of chemically synthesized polypeptide, corresponding to the amino acid sequence of residues 503-535 of HIV-1, coupled to Keyhole Limpet Hemocyanin. 500 µg of octadecyl tyrosine hydrochloride was complexed with the polypeptide, as described in Example 2. This mixture in a total volume of 1.0 ml was injected on day 1 and again on day 35. The animals were bled 3 days before the first immunization, and on days 14, 32 and 49. The same experiment was undertaken with another two baboons, but with polypeptide corresponding to the amino acid sequence 526-535 of HIV-1. The antibody concentration in the sera was indirectly measured by radioimmunoassay. Tiltration was undertaken by incubation of samples on plates coated with peptide-albumin conjugate, and reaction with iodine-125 labelled rabbit anti-monkey immunoglobulin.

`CCCCCCCCCCCCCCCCCCOC(=O)CN` was tested, and the Anti-HBsAg antibody concentration ([1]; day 7) was 47 ng/mL, the Anti-HBsAg antibody concentration ([1]; day 14) was 38 ng/mL and the Anti-HBsAg antibody concentration ([1]; day 21) was 51 ng/mL. For the same compound, the Anti-HBsAg antibody concentration ([1]; day 28) was 147 ng/mL, the Anti-HBsAg antibody concentration ([1]; day 35) was 748 ng/mL and the Anti-HBsAg antibody concentration ([1]; day 61) was 301 ng/mL.
Work on `CCCCCCCCCCCCCCCCCCOC(=O)C(N)CC(C)C` (centres unmarked) yielded an Anti-HBsAg antibody concentration ([1]; day 7) of 48 ng/mL, an Anti-HBsAg antibody concentration ([1]; day 14) of 42 ng/mL and an Anti-HBsAg antibody concentration ([1]; day 21) of 37 ng/mL. It also gave an Anti-HBsAg antibody concentration ([1]; day 28) of 160 ng/mL, an Anti-HBsAg antibody concentration ([1]; day 35) of 590 ng/mL and an Anti-HBsAg antibody concentration ([1]; day 61) of 496 ng/mL.
`CCCCCCCCCCCCCCCCCCOC(=O)C1CCCN1` (centres unmarked) was tested, and the Anti-HBsAg antibody concentration ([1]; day 7) was 49 ng/mL, the Anti-HBsAg antibody concentration ([1]; day 14) was 35 ng/mL and the Anti-HBsAg antibody concentration ([1]; day 21) was 41 ng/mL. It also gave an Anti-HBsAg antibody concentration ([1]; day 28) of 72 ng/mL, an Anti-HBsAg antibody concentration ([1]; day 35) of 409 ng/mL and an Anti-HBsAg antibody concentration ([1]; day 61) of 168 ng/mL.
With `CCCCCCCCCCCCCCCCCCOC(=O)CCN` the Anti-HBsAg antibody concentration ([1]; day 7) was 31 ng/mL, the Anti-HBsAg antibody concentration ([1]; day 14) was 45 ng/mL and the Anti-HBsAg antibody concentration ([1]; day 21) was 44 ng/mL. It also gave an Anti-HBsAg antibody concentration ([1]; day 28) of 120 ng/mL, an Anti-HBsAg antibody concentration ([1]; day 35) of 337 ng/mL and an Anti-HBsAg antibody concentration ([1]; day 61) of 373 ng/mL.
For `CCCCCCCCCCCCCCCCCCOC(=O)C(N)CCCCN` (centres unmarked) [Octadecyl Lysine], the Anti-HBsAg antibody concentration ([1]; day 7) was 33 ng/mL, the Anti-HBsAg antibody concentration ([1]; day 14) was 55 ng/mL and the Anti-HBsAg antibody concentration ([1]; day 21) was 39 ng/mL. For the same compound, the Anti-HBsAg antibody concentration ([1]; day 28) was 51 ng/mL, the Anti-HBsAg antibody concentration ([1]; day 35) was 67 ng/mL and the Anti-HBsAg antibody concentration ([1]; day 61) was 53 ng/mL.
“H-Val-Ala-Pro-Thr-Lys-Ala-Lys-Arg-Arg-Val-Val-Gln-Arg-Glu-Lys-Arg-Ala-Val-Gly-Ile-Gly-Ala-Leu-Phe-Leu-Gly-Phe-Leu-Gly-Ala-Ala-Gly-Ser- (VAPTKAKRRVVQREKRAVGIGALFLGFLGAAGS; printed: Val-Ala-Pro-Thr-Lys-Ala-Lys-Arg-Arg-Val-Val-Gln-Arg-Glu-Lys-Arg-Ala-Val-Gly-Ile-Gly-Ala-Leu-Phe-Leu-Gly-Phe-Leu-Gly-Ala-Ala-Gly-Ser-) [503-535]” was tested, and the “Antibody response to HIV-1 polypeptide” value (HIV-1 polypeptide; ANIMAL 1, day 14, 300 µg polypeptide-KLH + 500 µg octadecyl tyrosine hydrochloride on day 1 and 35, background subtracted) was 2004 CPM, the “Antibody response to HIV-1 polypeptide” value (HIV-1 polypeptide; ANIMAL 1, day 32, 300 µg polypeptide-KLH + 500 µg octadecyl tyrosine hydrochloride on day 1 and 35, background subtracted) was 2185 CPM and the “Antibody response to HIV-1 polypeptide” value (HIV-1 polypeptide; ANIMAL 1, day 49, 300 µg polypeptide-KLH + 500 µg octadecyl tyrosine hydrochloride on day 1 and 35, background subtracted) was 5948 CPM. For the same compound, the “Antibody response to HIV-1 polypeptide” value (HIV-1 polypeptide; ANIMAL 1, day -3 (bled before the first immunization), after subtraction of background on bovine serum albumin coated plates) was 1020 CPM, the “Antibody response to HIV-1 polypeptide” value (HIV-1 polypeptide; ANIMAL 2, day 14, 300 µg polypeptide-KLH + 500 µg octadecyl tyrosine hydrochloride on day 1 and 35, background subtracted) was 2160 CPM and the “Antibody response to HIV-1 polypeptide” value (HIV-1 polypeptide; ANIMAL 2, day 32, 300 µg polypeptide-KLH + 500 µg octadecyl tyrosine hydrochloride on day 1 and 35, background subtracted) was 2121 CPM. For the same compound, the “Antibody response to HIV-1 polypeptide” value (HIV-1 polypeptide; ANIMAL 2, day 49, 300 µg polypeptide-KLH + 500 µg octadecyl tyrosine hydrochloride on day 1 and 35, background subtracted) was 4470 CPM and the “Antibody response to HIV-1 polypeptide” value (HIV-1 polypeptide; ANIMAL 2, day -3 (bled before the first immunization), after subtraction of background on bovine serum albumin coated plates) was 1530 CPM.
Octadecyl Forphenicine was tested, and the Anti-HBsAg antibody concentration ([1]; day 7) was 100 ng/mL, the Anti-HBsAg antibody concentration ([1]; day 14) was 112 ng/mL and the Anti-HBsAg antibody concentration ([1]; day 21) was 116 ng/mL. The Anti-HBsAg antibody concentration ([1]; day 28) was 908 ng/mL, the Anti-HBsAg antibody concentration ([1]; day 35) was 592 ng/mL and the Anti-HBsAg antibody concentration ([1]; day 61) was 355 ng/mL.
Octadecyl Forphenicinol was tested, and the Anti-HBsAg antibody concentration ([1]; day 7) was 31 ng/mL, the Anti-HBsAg antibody concentration ([1]; day 14) was 40 ng/mL and the Anti-HBsAg antibody concentration ([1]; day 21) was 26 ng/mL. It also gave an Anti-HBsAg antibody concentration ([1]; day 28) of 65 ng/mL, an Anti-HBsAg antibody concentration ([1]; day 35) of 306 ng/mL and an Anti-HBsAg antibody concentration ([1]; day 61) of 98 ng/mL.

Source: patent EP0597838B1, “VACCINE COMPOSITIONS” (NORTH AMERICAN VACCINE, INC., priority 1990, dated 1991)
